Data set [1] relates to PPO. The data set is described as follows: Decrease of PPO activity (browning of supernatant) by antioxidants in ground tomato leaves. It counts as biochemical, Tomato (L. esculentum). The note with it: for Efficient concentration (minimal concentration that enables a decrease of 95% of PPO activity): w/v, 10 mM Tris-HCl pH=8, about 2 hrs at 4° C. Here is the method:
Three compounds were tested: citric acid, ascorbic acid and sodium bisulfite. Different concentrations of chemicals were used to identify the chemical with the highest antioxidant activity. Tomato (L. esculentum) young leaves (about 100 mg) were grinded at 4° C. in 200 μl of 10 mM Tris-HCl pH=8 buffer containing appropriate concentration of antioxidant (0.01-2.0% w/v), incubated for about 2 hrs at 4° C. and centrifuged at 14,000 rpm for 3 min in order to separate leaves-debris and liquid fraction. Decreasing of PPO activity was inspected by eliminating the production of brown color of the supernatant as a result of the oxidation of polyphenols. Table 8 below summarizes the minimal concentration that enables a decrease of 95% of PPO activity.
A buffer without any antioxidant was used as a negative control.

Data set [2] has as its system PPO. The note with it: positive control at 200 mM; PPO harvested from trichome cells; cited from earlier work.
The next data set has as its system tomato trichome. The data set is described as follows: GUS staining of leaves of T1 tomato plants carrying promoter-GUS constructs. It counts as in vivo, tomato (Lycopersicon esculentum cv. Micro-Tom). Here is the method: Tomato transformation—Tomato transformation was carried out according to Fillati et al. (19). Briefly, Lycopersicon esculentum cv. Micro-Tom cotyledons were used for Agrobacterium based plant transformation. The Micro-Tom seeds were surface sterilized for 10 min in a 3% sodium hypochlorite solution. The seeds were washed with DDW three times and soaked for three hours in fresh DDW, then plated into 0.5 L container with Nitsch medium, containing MS salts, 3% sucrose, Nitsch vitamins and 0.8% plant agar (Duchefa, Netherland). The PH was adjusted to 5.8 prior to autoclaving for 20 min at 121° C. 50 seeds where plated on 0.5 L sterilized container containing the germination medium and left at 25° C. in culture room, 16/8 hrs light/dark cycles, under light intensity of (150 μEm^−2S). Seedlings where grown for 8 days.
A. GUS staining—Gus staining of tomato and tobacco plants was effected as previously described (15). Briefly: Leaves were fixed in 90% ice cold acetone for 15-20 minutes (on ice), followed by removal of acetone and a double tissue rinsing with the Working Solution [25 mM Sodium Phosphate (Sigma, USA) buffer pH=7, Ferricyanide (Sigma, USA) 1.25 mM, Ferrocyanide (Sigma, USA) 1.25 mM, Triton X-100 (Sigma, USA) 0.25%, EDTA (BioLab) 0.25 mM] for 15-20 minutes. Rinse solution was removed, replaced with Staining solution [Working solution with 5-bromo-4-chloro-3-indolyl-β-D-glucuronic acid (X-GlcA, Duchefa) solubilized in N,N-Dimethylformamide (BioLab) 1.5 mg/ml and Dithiothreitol (DTT, Bio Lab) 100 mM] and incubated in the dark (tubes wrapped with aluminum foil) over night at 37° C. Distaining was effected by sinking the plant tissue in 70% ethanol and heating at 50° C. for ˜2 hours. The distaining step was repeated until the plant tissue became transparent except the blue stained regions. Distained plants were stored in 70% ethanol (BioLab) at room temperature.
GUS staining was performed on leaves of T1 tomato and tobacco plants transfected with a binary vector including putative trichome specific promoters upstream of a GUS gene. […]

Marks after values point to notes of the source that are not given here.

In the case of `O=C(O)CC(O)(CC(=O)O)C(=O)O` [Citric acid], the “Efficient concentration (minimal concentration that enables a decrease of 95% of PPO activity)” value with PPO [1] is recorded as 1.0%. In the case of `O=S([O-])O.[Na+]` [Sodium bisulfite], in the data set with PPO [1] (increasing concentrations, FIG. 3), the “PPO activity as indicated by medium browning” value is “decreased PPO activity”. Moreover, the “Efficient concentration (minimal concentration that enables a decrease of 95% of PPO activity)” value with PPO [1] is listed as 0.05%. Regarding `O[C@H](CS)[C@H](O)CS` (racemic) [DDT, Dithiothreitol], the PPO activity entry in the data set on PPO [2] is listed as “eliminate PPO activity”. `O=C1O[C@H]([C@@H](O)CO)C(O)=C1O` [Ascorbic acid]: in the data set on PPO [1], the “Efficient concentration (minimal concentration that enables a decrease of 95% of PPO activity)” value turned out to be 1.0%*.

B1: TR27-P: previously described cotton promoter, G. barbadense var. Pima 15, SEQ ID NO: 39 (nucleic acid)
DNA: AAGCTTTAAGTTTAAATCCTATTGTAGTGTTATTTATAAAAAAAATGAGAAAAGATAAAAATACCTTTATATTAATATTTGTTATATTATAAAATAAGGATATTTTTAACAAATTTTCAATTGAATAGATGTTTGGGTGAATCCTAATACCAATTAAAGTATATATACAGCAAACAATTATAAATCAAATTACTTTTAATAAAATGCTATCATTCAATTCAATGACAATAAATGCATTTATAAATACATCAAATGTAAATCTCATGTTTATAAGAAAACACGTAGAAAAAAAGTTAAACCAATATTTGAGTCCTAGCTGTGGAGGCATGATTGAGTGAAATCAAATGGACGCTGGTTTTAATTCTATTGAAAGAAACCAATAATCACGTAGGTTGGCAGTTGAACATAATTGAATGGTCTCAACTTTTAATGTGGTGTTAATGTTTGGATCGGATAATCTCAACTTACCTAATAGCTAGGAAAGTAAAATTCAAACATCACCCGCTACTACTTTTGGCTATAAAAACCCTCCTACCCTCAAGCCCTAACCACGACAATCACCAATAGTACTACTACTCCAAGCAAGTATTTTCCTTACACGTTTGTTTTTCTTGTGATAATGGATCC
modifications: Gossypium barbadense
As to B1, the Avg grade with tomato trichome (GUS staining, tomato T1 generation, signal peptide: No) turned out to be 0.4. Moreover, the GUS expression pattern result with tomato trichome (GUS under the regulation of the promoter, FIGS. 1d-h) is reported as “expressed in a trichome-gland specific manner”. In the data set on tomato trichome (conclusion from Table 6), the “effectiveness in facilitating expression of heterologous genes in the tomato trichome” value is recorded as “most effective”.

The values are drawn from US8129514B2, “Nucleotide sequences for regulating gene expression in plant trichomes and constructs and methods utilizing same” (Evogene Ltd., priority 2003, dated 2012).
